Values joined by “and” are separate entries in the source; they are usually repeats but may differ in a detail not shown here. Equal values may be shown once.
Test: molar heat capacity at constant pressure
Settings: 101.33 kPa, Small (less than 1 g) adiabatic calorimetry

O=P([O-])([O-])[O-].[Cs+].[Mg+2] [caesium-magnesium monophosphate]
molar heat capacity at constant pressure
Settings	Crystal 1	Crystal 2
7.22 K	–	0.956 J/K/mol
7.3 K	–	0.981 J/K/mol
7.96 K	–	1.22 J/K/mol
8 K	–	1.24 J/K/mol
8.7 K	–	1.59 J/K/mol
9.4 K	–	1.98 J/K/mol
10.09 K	–	2.4 J/K/mol
10.42 K	–	2.67 J/K/mol
11.01 K	–	3.12 J/K/mol
11.69 K	–	3.64 J/K/mol
12.4 K	–	4.2 J/K/mol
13.07 K	–	4.7 J/K/mol
13.9 K	–	5.392 J/K/mol
14.63 K	–	6.03 J/K/mol
15.35 K	–	6.706 J/K/mol
16.06 K	–	7.41 J/K/mol
16.84 K	–	8.22 J/K/mol
17.45 K	–	8.872 J/K/mol
18.81 K	–	10.39 J/K/mol
19.49 K	–	11.15 J/K/mol
20.16 K	–	11.94 J/K/mol
21.16 K	–	13.14 J/K/mol
22.91 K	–	15.3 J/K/mol
25.31 K	–	18.18 J/K/mol
27.75 K	–	20.87 J/K/mol
30.21 K	–	23.48 J/K/mol
32.69 K	–	25.92 J/K/mol
35.16 K	–	28.27 J/K/mol
37.64 K	–	30.51 J/K/mol
40.12 K	–	32.64 J/K/mol
42.6 K	–	34.69 J/K/mol
45.08 K	–	36.64 J/K/mol
47.57 K	–	38.55 J/K/mol
52.52 K	–	41.99 J/K/mol
54.99 K	–	43.63 J/K/mol
57.47 K	–	45.23 J/K/mol
59.95 K	–	46.77 J/K/mol
61.64 K	–	47.78 J/K/mol
63.99 K	–	49.13 J/K/mol
67.48 K	–	51.06 J/K/mol
71.15 K	–	53 J/K/mol
74.82 K	–	54.85 J/K/mol
78.48 K	–	56.63 J/K/mol
82.15 K	–	58.35 J/K/mol
82.7 K	–	58.61 J/K/mol
85.82 K	–	60.04 J/K/mol
85.9 K	–	60.06 J/K/mol
88.99 K	–	61.45 J/K/mol
89.49 K	–	61.67 J/K/mol
91.95 K	–	62.76 J/K/mol
94.91 K	–	64.05 J/K/mol
97.87 K	–	65.34 J/K/mol
100.82 K	–	66.59 J/K/mol
103.77 K	–	67.82 J/K/mol
106.72 K	–	69.04 J/K/mol
109.68 K	–	70.27 J/K/mol
112.63 K	–	71.51 J/K/mol
115.8 K	–	72.79 J/K/mol
118.91 K	–	74.06 J/K/mol
121.88 K	–	75.27 J/K/mol
124.84 K	–	76.48 J/K/mol
127.8 K	–	77.7 J/K/mol
130.76 K	–	78.9 J/K/mol
133.72 K	–	80.09 J/K/mol
136.69 K	–	81.3 J/K/mol
139.65 K	–	82.5 J/K/mol
142.62 K	–	83.64 J/K/mol
145.59 K	–	84.81 J/K/mol
148.56 K	–	85.97 J/K/mol
151.53 K	–	87.14 J/K/mol
154.5 K	–	88.22 J/K/mol
157.6 K	–	89.38 J/K/mol
160.43 K	–	90.46 J/K/mol
163.6 K	–	91.63 J/K/mol
166.37 K	–	92.62 J/K/mol
169.34 K	–	93.7 J/K/mol
172.31 K	–	94.79 J/K/mol
175.74 K	–	96.03 J/K/mol
178.73 K	–	97.11 J/K/mol
182.05 K	–	98.28 J/K/mol
185.19 K	–	99.36 J/K/mol
188.17 K	–	100.4 J/K/mol
191.4 K	–	101.5 J/K/mol
194.3 K	–	102.6 J/K/mol
197.16 K	–	103.5 J/K/mol
199.5 K	–	104.3 J/K/mol
200.16 K	–	104.6 J/K/mol
202.4 K	–	105.3 J/K/mol
202.86 K	–	105.5 J/K/mol
205.51 K	–	106.3 J/K/mol
205.98 K	–	106.6 J/K/mol
208.48 K	–	107.5 J/K/mol
208.94 K	–	107.8 J/K/mol
211.44 K	–	108.6 J/K/mol
211.9 K	–	108.9 J/K/mol
214.13 K	–	109.6 J/K/mol
214.59 K	–	109.9 J/K/mol
217.18 K	–	110.9 J/K/mol
217.64 K	–	111.2 J/K/mol
220.64 K	–	112.7 J/K/mol
221.1 K	–	113 J/K/mol
223.65 K	–	114.4 J/K/mol
224.11 K	–	114.9 J/K/mol
226.53 K	–	116.3 J/K/mol
226.99 K	–	116.9 J/K/mol
232.4 K	–	122.6 J/K/mol
232.75 K	–	123.1 J/K/mol
235.69 K	133.5 J/K/mol	129.2 J/K/mol
235.7 K	129.1 J/K/mol	–
237.89 K	126.1 J/K/mol	–
238.55 K	124.9 J/K/mol	–
240.77 K	121.7 J/K/mol	–
241.43 K	120.9 J/K/mol	–
243.77 K	118.8 J/K/mol	–
244.43 K	118.3 J/K/mol	–
246.72 K	116.9 J/K/mol	–
247.38 K	116.7 J/K/mol	–
249.24 K	115.8 J/K/mol	–
249.9 K	115.7 J/K/mol	–
250 K	112.2 J/K/mol	–
252.35 K	115.1 J/K/mol	–
253.01 K	114.9 J/K/mol	–
255.27 K	114.7 J/K/mol	–
255.8 K	114.7 J/K/mol	–
257.91 K	114.8 J/K/mol	–
258.57 K	114.8 J/K/mol	–
260 K	114.2 J/K/mol	–
260.67 K	115 J/K/mol	–
261.33 K	115.1 J/K/mol	–
263.41 K	115.3 J/K/mol	–
264.07 K	115.4 J/K/mol	–
266.23 K	115.7 J/K/mol	–
266.89 K	115.8 J/K/mol	–
268.97 K	116.1 J/K/mol	–
269.63 K	116.2 J/K/mol	–
270 K	116.3 J/K/mol	–
271.52 K	116.5 J/K/mol	–
272.18 K	116.7 J/K/mol	–
274.19 K	117.1 J/K/mol	–
274.85 K	117.2 J/K/mol	–
276.83 K	117.7 J/K/mol	–
277.49 K	117.8 J/K/mol	–
280 K	118.3 J/K/mol	–
280.12 K	118.3 J/K/mol	–
282.5 K	118.8 J/K/mol	–
285.44 K	119.4 J/K/mol	–
287.8 K	119.8 J/K/mol	–
289.7 K	120.3 J/K/mol	–
290 K	120.3 J/K/mol	–
292.8 K	121 J/K/mol	–
294.9 K	121.5 J/K/mol	–
297 K	121.9 J/K/mol	–
298.15 K	122.1 J/K/mol	–
298.84 K	122.3 J/K/mol	–
300 K	122.6 J/K/mol	–
300.7 K	122.7 J/K/mol	–
303.3 K	123.3 J/K/mol	–
305.9 K	123.9 J/K/mol	–
308 K	124.4 J/K/mol	–
310 K	124.8 J/K/mol	–
310.1 K	124.8 J/K/mol	–
312.4 K	125.4 J/K/mol	–
314.7 K	125.9 J/K/mol	–
316.4 K	126.2 J/K/mol	–
318 K	126.5 J/K/mol	–
320 K	127 J/K/mol	–
321.1 K	127.2 J/K/mol	–
324.2 K	128 J/K/mol	–
325.3 K	128.2 J/K/mol	–
326.4 K	128.5 J/K/mol	–
329.66 K	129.1 J/K/mol	–
330 K	129.2 J/K/mol	–
330.5 K	128.9 J/K/mol	–
332.91 K	129.7 J/K/mol	–
333.99 K	129.9 J/K/mol	–
334.4 K	129.7 J/K/mol	–
335.08 K	130.1 J/K/mol	–
338.2 K	130.6 J/K/mol	–
338.3 K	130.5 J/K/mol	–
340 K	131 J/K/mol	–
341.8 K	131.2 J/K/mol	–
342.2 K	131.4 J/K/mol	–
343.4 K	131.5 J/K/mol	–
345.83 K	132 J/K/mol	–
346.1 K	132.2 J/K/mol	–
348.25 K	132.5 J/K/mol	–
350 K	133 J/K/mol and 132.7 J/K/mol	–
350.05 K	132.7 J/K/mol	–
351.85 K	133 J/K/mol	–
353.9 K	133 J/K/mol	–
357.8 K	133.9 J/K/mol	–
360 K	135 J/K/mol	–
361.7 K	134.7 J/K/mol	–
365.5 K	135.5 J/K/mol	–
369.2 K	136.4 J/K/mol	–
370 K	136 J/K/mol	–
372.9 K	136.4 J/K/mol	–
376.6 K	137.2 J/K/mol	–
380 K	138 J/K/mol	–
380.2 K	138 J/K/mol	–
383.7 K	138 J/K/mol	–
387.2 K	138.9 J/K/mol	–
390 K	140 J/K/mol	–
390.7 K	139.7 J/K/mol	–
394.2 K	140.5 J/K/mol	–
397.7 K	140.5 J/K/mol	–
400 K	141 J/K/mol	–
401.3 K	141.3 J/K/mol	–
404.8 K	141.3 J/K/mol	–
408.5 K	142.2 J/K/mol	–
410 K	142 J/K/mol	–
412.1 K	143 J/K/mol	–
415.8 K	143 J/K/mol	–
419.6 K	143.8 J/K/mol	–
420 K	144 J/K/mol	–
423.3 K	144.7 J/K/mol	–
427 K	145.5 J/K/mol	–
430 K	146 J/K/mol	–
430.6 K	145.5 J/K/mol	–
434.3 K	146.3 J/K/mol	–
437.9 K	146.3 J/K/mol	–
440 K	147 J/K/mol	–
441.6 K	147.2 J/K/mol	–
445.2 K	148 J/K/mol	–
448.8 K	148 J/K/mol	–
450 K	148 J/K/mol	–
452.5 K	148.8 J/K/mol	–
456.1 K	148.8 J/K/mol	–
459.8 K	149.7 J/K/mol	–
460 K	150 J/K/mol	–
463.4 K	150.5 J/K/mol	–
467.1 K	150.5 J/K/mol	–
470 K	151 J/K/mol	–
470.7 K	151.3 J/K/mol	–
474.4 K	151.3 J/K/mol	–
478.1 K	152.2 J/K/mol	–
480 K	152 J/K/mol	–
481.8 K	152.2 J/K/mol	–
485.4 K	153 J/K/mol	–
489.1 K	153.8 J/K/mol	–
490 K	154 J/K/mol	–
492.7 K	153.8 J/K/mol	–
496.4 K	154.6 J/K/mol	–
500 K	154.6 J/K/mol and 155 J/K/mol	–
503.7 K	155.5 J/K/mol	–
507.3 K	155.5 J/K/mol	–
510 K	156 J/K/mol	–
511 K	156.3 J/K/mol	–
514.6 K	156.3 J/K/mol	–
518.3 K	157.1 J/K/mol	–
520 K	157 J/K/mol	–
521.8 K	157.1 J/K/mol	–
525.4 K	158 J/K/mol	–
529 K	158 J/K/mol	–
530 K	159 J/K/mol	–
532.6 K	158.8 J/K/mol	–
536.1 K	158.8 J/K/mol	–
539.8 K	159.6 J/K/mol	–
540 K	160 J/K/mol	–
543.3 K	159.6 J/K/mol	–
546.9 K	160.5 J/K/mol	–
550 K	160 J/K/mol	–
550.5 K	160.5 J/K/mol	–
554.1 K	161.3 J/K/mol	–
557.7 K	161.3 J/K/mol	–
560 K	162 J/K/mol	–
561.4 K	162.1 J/K/mol	–
565 K	162.1 J/K/mol	–
568.7 K	163 J/K/mol	–
570 K	163 J/K/mol	–
572.4 K	163 J/K/mol	–
576.1 K	163.8 J/K/mol	–
579.8 K	163.8 J/K/mol	–
580 K	164 J/K/mol	–
583.4 K	164.6 J/K/mol	–
587.1 K	164.6 J/K/mol	–
590 K	165 J/K/mol	–
590.7 K	165.5 J/K/mol	–
594.3 K	165.5 J/K/mol	–
597.9 K	166.3 J/K/mol	–
600 K	166 J/K/mol	–
603.4 K	166.3 J/K/mol	–
607 K	167.1 J/K/mol	–
610 K	167 J/K/mol	–
610.6 K	167.1 J/K/mol	–
614.2 K	168 J/K/mol	–
617.7 K	168 J/K/mol	–
620 K	168 J/K/mol	–
621.4 K	168 J/K/mol	–
625 K	168.8 J/K/mol	–
628.6 K	168.8 J/K/mol	–
630 K	169 J/K/mol	–
632.3 K	169.6 J/K/mol	–
636 K	169.6 J/K/mol	–
639.7 K	170.4 J/K/mol	–
640 K	170 J/K/mol	–
643.3 K	170.4 J/K/mol	–
648.9 K	171.3 J/K/mol	–
650 K	171 J/K/mol	–

Source: the NIST ThermoML archive (doi:10.1016/j.jct.2007.11.001)
